The values that follow come from patent US10669289B2, “Boronic acid derivatives” (MERCK PATENT GMBH, priority 2014, dated 2020).

Structures are written as SMILES.

For test [1], the target named is human immuno proteasome (LMP7) (Homo sapiens (Human), UniProt P28062). Put plainly: Determination of LMP7 activity (fluorescence intensity assay, Suc-LLVY-AMC). Type of test: biochemical. The procedure:
Determination of LMP7 Activity:
Measurement of LMP7 inhibition is performed in 384 well format based on fluorescence intensity assay.
(§1) Purified human immuno proteasome (0.25 nM) and serial diluted compounds in DMSO (range of concentrations from 30 μM to 15 pM) or controls are incubated for 20 minutes or 120 minutes (long incubation) at 25° C. in assay buffer containing 50 mM Tris pH 7.4, 0.03% SDS, 1 mM EDTA and 1% DMSO. The reaction is initiated by the addition of the fluorogenic peptide substrate, Suc-LLVY-AMC (Bachem 1-1395), at a concentration of 40 μM. After 60 minutes of incubation at 37° C., fluorescence intensity is measured at λex=350 nm and λem=450 nm with a fluorescence reader (Perkin Elmer Envision reader or equivalent).
(§2) Unless indicated otherwise the results are obtained after incubation for 20 minutes.

The target of test [2] is human constitutive proteasome (Beta5) (Homo sapiens (Human), UniProt P28074). Put plainly: Determination of Beta5 activity (fluorescence intensity assay, Suc-LLVY-AMC). It is filed as biochemical. How it is done:
Determination of Beta5 Activity:
Measurement of Beta5 inhibition is performed in 384 well format based on fluorescence intensity assay.
as §1, with “constitutive” for “immuno”, “(1.25” for “(0.25”
as §2

[3] abbreviates: LMP7 versus Beta5, long incubation (120 min).
Where [4] appears, read: LMP7 versus Beta5, incubation for 20 minutes.

For the compound `C=CC(=O)N1CCCC[C@@H]1C(=O)N[C@@H](Cc1ccc(Cl)cc1Cl)B(O)O` [Compound No. 51, [(1R)-2-(2,4-dichlorophenyl)-1-[[(2R)-1-prop-2-enoylpiperidine-2-carbonyl]amino]ethyl]boronic Acid], in test [1] (setting [3]), the “Selectivity LMP7 vs Beta5” value is “++++ (100 ≤ Selectivity < 150)”. The IC50 in test [1] (long incubation (120 min)) was 50 to 500 nM; in test [2] (long incubation (120 min)), more than 5000 nM.
Regarding `C=CC(=O)N(CC(=O)N[C@@H](Cc1ccc(C)cc1C)B(O)O)C1CC1` [Compound No. 59, [(1R)-1-[[2-[cyclopropyl(prop-2-enoyl)amino]acetyl]amino]-2-(2,4-dimethylphenyl)ethyl]boronic Acid], in test [1] (setting [3]), the “Selectivity LMP7 vs Beta5” value was “+++++ (Selectivity ≥ 150)”. Besides, the IC50 is less than 50 nM in test [1] (long incubation (120 min)) and more than 5000 nM in test [2] (long incubation (120 min)).
On the same counts, the results for `C=CC(=O)N(C)CC(=O)N[C@@H](Cc1cccc2ccccc12)B(O)O` [Compound No. 80, [(1R)-1-[[2-[methyl(prop-2-enoyl)amino]acetyl]amino]-2-(1-naphthyl)ethyl]boronic Acid] are “+++++ (Selectivity ≥ 150)”, 50 to 500 nM and more than 5000 nM.
Take `C/C=C(/C)C(=O)N(CC)CC(=O)N[C@@H](Cc1ccc(C)cc1C)B(O)O` [Compound No. 21, [(1R)-2-(2,4-dimethylphenyl)-1-[[2-[ethyl-[(Z)-2-methylbut-2-enoyl]amino]acetyl]amino]ethyl]boronic Acid]: the “Selectivity LMP7 vs Beta5” value in test [1] (setting [4]) is on record as “++ (50 ≤ Selectivity < 70)”. The IC50 in test [1] (incubation for 20 minutes) is 50 to 500 nM; in test [2] (incubation for 20 minutes), more than 5000 nM.
In the case of `C=CC(=O)N(CC)CC(=O)N[C@@H](Cc1ccc(Cl)cc1Cl)B(O)O` [Compound No. 40, [(1R)-2-(2,4-dichlorophenyl)-1-[[2-[ethyl(prop-2-enoyl)amino]acetyl]amino]ethyl]boronic Acid], the “Selectivity LMP7 vs Beta5” value in test [1] (setting [3]) is “+++++ (Selectivity ≥ 150)”. Also, the half-inhibitory concentration (IC50) in test [1] (long incubation (120 min)) was 50 to 500 nM; in test [2] (long incubation (120 min)) it was more than 5000 nM.
As for `CC#CC(=O)N(C)CC(=O)N[C@@H](Cc1ccc(C)cc1C)B(O)O` [Compound No. 20, [(1R)-1-[[2-[but-2-ynoyl(methyl)amino]acetyl]amino]-2-(2,4-dimethylphenyl)ethyl]boronic Acid], the “Selectivity LMP7 vs Beta5” value in test [1] (setting [4]) is “+ (Selectivity < 50)”. Moreover, the values for the IC50 in test [1] (incubation for 20 minutes) and in test [2] (incubation for 20 minutes) were less than 50 nM and 500 to 5000 nM, respectively.
`C=C(C)C(=O)N(CC)CC(=O)N[C@@H](Cc1ccc(C)cc1C)B(O)O` [Compound No. 32, [(1R)-2-(2,4-dimethylphenyl)-1-[[2-[ethyl(2-methylprop-2-enoyl)-amino]acetyl]amino]ethyl]boronic Acid]: the “Selectivity LMP7 vs Beta5” value in test [1] (setting [4]) was “+++ (70 ≤ 100)”. In addition, the IC50 is 50 to 500 nM in test [1] (incubation for 20 minutes) and more than 5000 nM in test [2] (incubation for 20 minutes).
For `C=CC(=O)N(C)[C@@H](C)C(=O)N[C@@H](Cc1ccc(C)c(C)c1)B(O)O` [Compound No. 68, [(1R)-2-(3,4-dimethylphenyl)-1-[[(2S)-2-[methyl(prop-2-enoyl)amino]propanoyl]amino]ethyl]boronic Acid], the “Selectivity LMP7 vs Beta5” value in test [1] (setting [3]) was “+++++ (Selectivity ≥ 150)”. For the same compound, the IC50 in test [1] (long incubation (120 min)) was 50 to 500 nM; in test [2] (long incubation (120 min)), more than 5000 nM.
For `C=CC(=O)N(CC(=O)N[C@@H](Cc1ccsc1)B(O)O)c1cc(Cl)cc(Cl)c1` [Compound No. 95, [(1R)-1-[[2-(3,5-dichloro-N-prop-2-enoyl-anilino)acetyl]amino]-2-(3-thienyl)ethyl]boronic Acid] the same measures were “+++++ (Selectivity ≥ 150)”, less than 50 nM and more than 5000 nM.
On to `C=CC(=O)N(CC(=O)N[C@@H](Cc1ccsc1)B(O)O)c1ccc(OC)c(OC)c1` [Compound No. 99, [(1R)-1-[[2-(3,4-dimethoxy-N-prop-2-enoyl-anilino)acetyl]-amino]-2-(3-thienyl)ethyl]boronic Acid], for which, in test [1] (setting [3]), the “Selectivity LMP7 vs Beta5” value is “+++++ (Selectivity ≥ 150)”. For the same compound, the IC50 was less than 50 nM in test [1] (long incubation (120 min)) and more than 5000 nM in test [2] (long incubation (120 min)).
As to `C/C=C\C(=O)N(CC)CC(=O)N[C@@H](Cc1ccc(C)cc1C)B(O)O` [Compound No. 18, [(1R)-1-[[2-[[(Z)-but-2-enoyl]-ethyl-amino]acetyl]amino]-2-(2,4-dimethylphenyl)ethyl]boronic Acid], in test [1] (setting [4]), the “Selectivity LMP7 vs Beta5” value is “+++ (70 ≤ 100)”. For the same compound, the IC50 is 50 to 500 nM in test [1] (incubation for 20 minutes) and 500 to 5000 nM in test [2] (incubation for 20 minutes).
On to `C=CC(=O)N(CC(=O)N[C@@H](Cc1ccsc1)B(O)O)C1CC1` [Compound No. 90, [(1R)-1-[[2-[cyclopropyl(prop-2-enoyl)amino]acetyl]amino]-2-(3-thienyl)ethyl]boronic Acid], for which the “Selectivity LMP7 vs Beta5” value in test [1] (setting [3]) is listed as “+++++ (Selectivity ≥ 150)”. In addition, the IC50 is less than 50 nM in test [1] (long incubation (120 min)) and more than 5000 nM in test [2] (long incubation (120 min)).
Turning to `C=CC(=O)N(CC(=O)N[C@@H](C[C@H]1COc2c(C)cccc21)B(O)O)c1ccccc1F` [Compound No. 91, [(1R)-1-[[2-(2-fluoro-N-prop-2-enoyl-anilino)acetyl]amino]-2-[(3R)-7-methyl-2,3-dihydrobenzofuran-3-yl]ethyl]boronic Acid], the “Selectivity LMP7 vs Beta5” value in test [1] (setting [4]) is reported as “+++++ (Selectivity ≥ 150)”. The IC50 in test [1] (incubation for 20 minutes) was 50 to 500 nM; in test [2] (incubation for 20 minutes) it was more than 5000 nM.
With `C=CC(=O)N(CC(=O)N[C@@H](Cc1ccccc1)B(O)O)c1ccccc1F` [Compound No. 44, [(1R)-1-[[2-(2-fluoro-N-prop-2-enoyl-anilino)acetyl]amino]-2-phenyl-ethyl]boronic Acid], in test [1] (setting [3]), the “Selectivity LMP7 vs Beta5” value was “+++++ (Selectivity ≥ 150)”. In addition, the half-inhibitory concentration (IC50) in test [1] (long incubation (120 min)) was less than 50 nM; in test [2] (long incubation (120 min)), more than 5000 nM.
On to `C=CS(=O)(=O)N(C)CC(=O)N[C@@H](Cc1ccc(C)c(C)c1)B(O)O` [Compound No. 10, [(1R)-2-(3,4-dimethylphenyl)-1-[[2-[methyl(vinylsulfonyl)amino]-acetyl]amino]ethyl]boronic Acid], for which, in test [1] (setting [4]), the “Selectivity LMP7 vs Beta5” value is given as “+++++ (Selectivity ≥ 150)”. Moreover, the IC50 was less than 50 nM in test [1] (incubation for 20 minutes) and 500 to 5000 nM in test [2] (incubation for 20 minutes).
In the case of `C=CC(=O)N(CC)CC(=O)N[C@@H](Cc1ccc(C)c(C)c1)B(O)O` [Compound No. 14, [(1R)-2-(3,4-dimethylphenyl)-1-[[2-[ethyl(prop-2-enoyl)amino]acetyl]-amino]-ethyl]boronic Acid], the “Selectivity LMP7 vs Beta5” value in test [1] (setting [4]) is recorded as “+++++ (Selectivity ≥ 150)”. Moreover, the IC50 in test [1] (incubation for 20 minutes) was 50 to 500 nM; in test [2] (incubation for 20 minutes), more than 5000 nM.
For the compound `C#CC(=O)N(CC)CC(=O)N[C@@H](Cc1ccc(C)cc1C)B(O)O` [Compound No. 12, [(1R)-2-(2,4-dimethylphenyl)-1-[[2-[ethyl(prop-2-ynoyl)amino]acetyl]-amino]ethyl]boronic Acid], in test [1] (setting [4]), the “Selectivity LMP7 vs Beta5” value was “++++ (100 ≤ Selectivity < 150)”. The half-inhibitory concentration (IC50) in test [1] (incubation for 20 minutes) is less than 50 nM; in test [2] (incubation for 20 minutes) it was 500 to 5000 nM.
For the compound `C=CC(=O)N(C)CC(=O)N[C@@H](Cc1ccc(C)c(C)c1C)B(O)O` [Compound No. 74, [(1R)-1-[[2-[methyl(prop-2-enoyl)amino]acetyl]amino]-2-(2,3,4-trimethylphenyl)ethyl]boronic Acid], the “Selectivity LMP7 vs Beta5” value in test [1] (setting [3]) was “+++++ (Selectivity ≥ 150)”. In addition, the values for the half-inhibitory concentration (IC50) in test [1] (long incubation (120 min)) and in test [2] (long incubation (120 min)) were less than 50 nM and more than 5000 nM, respectively.
Turning to `C=CC(=O)N(CC)CC(=O)N[C@@H](Cc1ccc2ccccc2c1)B(O)O` [Compound No. 81, [(1R)-1-[[2-[ethyl(prop-2-enoyl)amino]acetyl]amino]-2-(2-naphthyl)ethyl]boronic Acid], the “Selectivity LMP7 vs Beta5” value in test [1] (setting [3]) was “+++++ (Selectivity ≥ 150)”. For the same compound, the half-inhibitory concentration (IC50) in test [1] (long incubation (120 min)) is less than 50 nM; in test [2] (long incubation (120 min)) it was more than 5000 nM.
For `C=CC(=O)N(C)[C@H](C)C(=O)N[C@@H](Cc1ccc(C)cc1C)B(O)O` [Compound No. 52, [(1R)-2-(2,4-dimethylphenyl)-1-[[(2R)-2-[methyl(prop-2-enoyl)amino]propanoyl]amino]ethyl]boronic Acid] the same measures were “++ (50 ≤ Selectivity < 70)”, 500 to 5000 nM and more than 5000 nM.
On the same counts, the results for `C=CC(=O)N(CC(=O)N[C@@H](Cc1ccc(C)cc1C)B(O)O)CC(F)(F)F` [Compound No. 57, [(1R)-2-(2,4-dimethylphenyl)-1-[[2-[prop-2-enoyl(2,2,2-trifluoroethyl)amino]acetyl]amino]ethyl]boronic Acid] are “+++++ (Selectivity ≥ 150)”, 50 to 500 nM and more than 5000 nM.
On to `C=CC(=O)N(CC(=O)N[C@@H](Cc1cccc(F)c1)B(O)O)c1ccccc1F` [Compound No. 98, [(1R)-2-(3-fluorophenyl)-1-[[2-(2-fluoro-N-prop-2-enoyl-anilino)acetyl]amino]ethyl]boronic Acid], for which the “Selectivity LMP7 vs Beta5” value in test [1] (setting [3]) is given as “+++++ (Selectivity ≥ 150)”. In addition, the IC50 is less than 50 nM in test [1] (long incubation (120 min)) and more than 5000 nM in test [2] (long incubation (120 min)).

The term IC50 denotes the concentration that inhibits the measured activity by half. High values mean a need for much substance, low ones inhibition by little substance.
